For seven compounds, TGI results are on record in PubChem BioAssay (NCI).

Structures are written as SMILES.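 Compound exposure: 48 hours, 5 concentrations, 96-well plates. The concentration for full growth arrest is given as TGI.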

Assay in all cases: growth of human tumour cells (NCI), 48 h
Experiment [1] concerns M14 melanoma.
Experiment [2] deals with RXF 393 renal.
Experiment [3] relates to DU-145 prostate.
Experiment [4] deals with SF-268 CNS.
Experiment [5] concerns OVCAR-8 ovarian.
The subject of experiment [6] is MALME-3M melanoma.
The test system of experiment [7] is OVCAR-5 ovarian.
Experiment [8] relates to PC-3 prostate.
Experiment [9] concerns SK-OV-3 ovarian.
The subject of experiment [10] is K-562 leukemia.
For experiment [11], the system named is NCI-H226 lung.
In experiment [12] the test system is OVCAR-4 ovarian.
For experiment [13], the system named is UO-31 renal.
Experiment [14] has as its system SNB-75 CNS.
Experiment [15] deals with SF-295 CNS.
Experiment [16] concerns MCF7 breast.
The test system of experiment [17] is HCC-2998 colon.
For experiment [18], the system named is MOLT-4 leukemia.
Experiment [19] relates to CCRF-CEM leukemia.
Experiment [20] concerns SK-MEL-5 melanoma.

For `c1ccc2c(-c3csc(-c4c[nH]c5ccccc45)n3)c[nH]c2c1`, the TGI in experiment [1], in [2], in experiment [3], in experiment [4], in experiment [5] and in experiment [6] was > 100 µM in each case. Moreover, the TGI in [7] is > 100 µM; in experiment [8] it was > 100 µM; in [9], > 100 µM; in experiment [10], 15.1 µM; in [11] it was > 100 µM; in experiment [12], > 100 µM. In addition, the TGI is > 100 µM in [13]; > 79.1 µM in [14]; > 89.1 µM in experiment [15]; > 100 µM in [16]; > 100 µM in [17]; 41.4 µM in experiment [18].
Turning to `CC(=O)O[C@@H]1[C@H]2[C@@H](OC(=O)c3ccccc3)[C@@H](C)C[C@]2(O)[C@H](OC(C)=O)[C@@]2(C)[C@@H]3C[C@@](C)(OC(C)=O)C[C@@H](OC(C)=O)[C@@]3(OC(C)=O)C[C@@]12C`, the TGI in [1], in experiment [19], in experiment [2], in experiment [3], in experiment [20] and in experiment [4] was > 10 µM throughout. In addition, the TGI in [5], in [7], in [8], in experiment [9], in experiment [10] and in experiment [11] was > 10 µM each time. For the same compound, the TGI in experiment [12], in [13], in experiment [14], in experiment [15], in experiment [16] and in experiment [17] was > 10 µM each time. Moreover, the TGI in experiment [18] is > 10 µM.
For `CCOP(=O)(OCC)C(Cc1ccc(Cl)cc1)NS(=O)(=O)c1ccc(C)cc1` (centres undefined), the TGI in experiment [1], in experiment [19], in experiment [2], in experiment [3], in experiment [20] and in experiment [4] was > 100 µM in each case. The TGI in experiment [5], in experiment [6], in experiment [7], in experiment [8], in experiment [9] and in experiment [10] was > 100 µM each time. Besides, the TGI in experiment [12], in [15], in experiment [16], in experiment [17] and in experiment [18] was > 100 µM throughout.
In the case of `CN(CCNC(=S)c1cn(C)c2c1ccc1ccccc12)CCNC(=S)c1cn(C)c2c1ccc1ccccc12`, the TGI in experiment [19] is > 100 µM; in [2] it was 7.47 µM; in experiment [3], > 100 µM; in experiment [20], > 100 µM; in experiment [4], > 100 µM; in [5], > 100 µM. For the same compound, the TGI in [6], in [7], in [8], in experiment [9], in [10] and in experiment [12] was > 100 µM throughout. For the same compound, the TGI in experiment [13], in experiment [14], in experiment [15], in experiment [16], in experiment [17] and in [18] was > 100 µM throughout.
Take `CCCCN(C)C(=O)C1=C(C)NC(C)=C(C(=O)N(C)CCCC)C1`: the TGI in experiment [1], in experiment [19], in [2], in experiment [3], in experiment [20] and in [4] was > 100 µM each time. Also, the TGI in experiment [5], in experiment [7], in experiment [8], in experiment [9], in experiment [10] and in [11] was > 100 µM each time. Also, the TGI in [12], in [13], in [14], in [15], in experiment [16] and in [17] was > 100 µM throughout. Besides, the TGI in [18] is > 100 µM.
Turning to `C/C(=N\NC(=S)Nc1ccc([N+](=O)[O-])cc1)c1nc2ncccc2[nH]1`, the TGI was 6.37 µM in experiment [1]; 12.4 µM in experiment [19]; > 100 µM in experiment [3]; 5.27 µM in experiment [20]; > 100 µM in experiment [4]; 1.71 µM in [5]. For the same compound, the TGI in [6] was 18.5 µM; in experiment [7], 4.14 µM; in [8], 16.9 µM; in experiment [9] it was 14.7 µM; in experiment [10], > 100 µM; in [11] it was 1.87 µM. The TGI came out at 4.21 µM in [12]; 1.35 µM in [13]; 4.1 µM in experiment [14]; 10.2 µM in [15]; 2.38 µM in [16]; 10.8 µM in [17]. In addition, in [18], the TGI stood at 13.3 µM.
Consider `COc1ccc(C(=O)Oc2c(C#N)sc3c2c(=O)n(-c2ccccc2)c(=S)n3-c2ccccc2)cc1`, for which the TGI in experiment [1] was 44.8 µM; in experiment [19], 74 µM; in experiment [2], 53.7 µM; in experiment [3], > 100 µM; in [20] it was 58 µM; in experiment [4] it was > 100 µM. The TGI in experiment [5] was > 100 µM; in experiment [7], 68.5 µM; in experiment [8], 98.7 µM; in [9], > 100 µM; in [10] it was > 100 µM; in experiment [11], 57 µM. Also, the TGI in experiment [12] was 79 µM; in [13], 3.94 µM; in experiment [14], > 100 µM; in [15] it was > 100 µM; in experiment [16] it was 80.4 µM; in experiment [17], 84.8 µM. In experiment [18], this compound yielded a TGI of 46.5 µM.
